Measurements published in US20070202138A1, “ANTIMICROBIAL COMPOSITIONS AND METHOD” (BIOFILM INNOVATIONS GROUP, LLC, priority 2006, published 2007).
Converted amounts (≈) assume the structure as drawn.

Experiments:
[1] = in vitro cytotoxicity, plating efficiency; conditions: mouse
Description: (§1) The cells are grown in humidified incubators at 37° C. in an atmosphere of 5% carbon dioxide/air (v/v).

in vitro = conditions: mouse
Description: as §1

In the case of `O=BOB(O)OB(O)OB=O` [borax], the CC50 [1] is reported as 2000 µg/mL (≈ 12.7 mM).
Work on `CC(=O)Nc1ccc(O)cc1` [acetaminophen] yielded a CC50 (in vitro) of 1000 µg/mL (≈ 6.62 mM).
Molecule `CC(=O)Oc1ccccc1C(=O)O` [aspirin] has a CC50 (in vitro) of 1500 µg/mL (≈ 8.33 mM).
